One may read the melting point as the temperature of the solid-liquid transition.

In turn, `CCOC(=O)C1=C(C)NC(C)=C(C(=O)OCC)C1c1ccc(F)c(Br)c1` had a melting point of 118 to 119 °C.
`CC(=CC(C)C)c1ccccc1NC(=O)c1cn(C)nc1C(F)(F)F`: the melting point lay in the range of 66 to 74 °C.
`CS(=O)(=O)N1CCN([C@@H](CNC(=O)c2ccc(OCc3ccccc3)cc2)C(=O)NO)CC1` registered a melting point of 150 °C.
`CC(C)c1cccc(C(C)C)c1NC(=O)NOC(c1ccccc1)c1ccccc1`: the melting point is 152 to 154 °C.
In turn, `Oc1ccc(Nc2nccc(-c3cccnc3)n2)cc1` yielded a melting point of 223 to 225 °C.
`O=C1CC(C(=O)NC(Cc2ccc(C(F)(F)F)cc2)C(O)c2ccc(F)cc2)c2ccccc21` (racemic) returned a melting point of 237 to 238 °C.
`CC(CCBr)Oc1ccccc1` (stereo not given): the melting point was in the range of 33 to 36 °C.
Regarding `O=S1(=O)c2ccccc2NC(=S)c2ccc(C(F)(F)F)cc21`, the melting point was 275 to 278 °C.
As for `COC=C(C(=O)OC)c1ccccc1COc1ccccc1`, the melting point is 60 °C.
On to `CN1C(=O)[C@H](NC(=O)Nc2ccc(Cl)cc2Cl)N=C(c2ccccc2)c2ccccc21`, for which the melting point fell in the range of 215 to 216 °C.
For `CC(=O)C=C(C)Nc1ccccc1C#N`, the melting point worked out at 100 °C.
In turn, `Nc1cc(=O)n(Cc2ccc(F)cc2)[nH]1` showed a melting point of 148 °C.
For the compound `C#CCON=C(C(C)=NOCc1ccccc1C(=COC)C(=O)OC)c1ccccc1`, the melting point was 163 to 165 °C.
`CN1C(=O)N(CCC(COc2ccc(-c3ccc(C#N)cc3)cc2)N(O)C=O)C(=O)C1(C)C` (stereo not given) came in with a melting point of 68 to 70 °C.
For the compound `COC1(c2cccc(OCc3ccc(-n4cnc(C)c4)cc3)c2)CCOCC1`, the melting point lay within 120 to 121 °C.
In turn, `CC(=O)SCC(Cc1ccccc1)C(=O)Nc1cccc(C(=O)NCC(=O)OCc2ccccc2)c1` (stereo not given) gave a melting point of 122 to 123 °C.
As to `Cc1onc(-c2ccc(-c3cscn3)cc2)c1-c1ccc(S(N)(=O)=O)c(F)c1`, the melting point was determined as 216 °C.
As for `COc1cc(-n2cc[nH]c2=O)c(Cl)cc1Cn1nc(-c2ccc(C(F)(F)F)cc2)oc1=O`, the melting point is 201 to 202 °C.
On to `C1=C(c2csc3ccccc23)CCN(Cc2ccccc2)C1`, for which the melting point was 90 °C.
`COc1cc(C(=O)O)ccc1-c1nc2cc3c(cc2[nH]1)NC(=O)C3(C)C` yielded a melting point of 315 to 319 °C.
For `COC(C)=CC(=O)Nc1cccc(N)c1` the value was 132 °C.
On to `CN1c2ccc(Cl)cc2C(c2ccccc2)=NCC1CN1CCCCC1` (stereo not given), for which the melting point was in the range of 143 to 145 °C.
As to `Cc1ncc(CS)c(COC(=O)c2ccccc2)c1OC(=O)c1ccccc1`, the melting point lay in the range of 185 to 189 °C.
The compound `CN1C(=O)[C@H](NC(=O)C2Cc3ccccc3O2)N=C(c2ccccc2)c2ccccc21` (stereo not given in full) registered a melting point of 141 to 180 °C.
Compound `COc1cc2c(cc1OC)C(COCCN1CCCCC1)OCCC2` (stereo not given) displayed a melting point of 124 °C.
In the case of `Cc1noc(NS(=O)(=O)c2ccccc2-c2ccc(-c3ncccn3)cc2CN2CCC(C)(C)C2=O)c1C`, the melting point lay within 105 to 115 °C.
With `N#CC(C(=O)NC1CCCCC1)=C1Nc2ccccc2O1`, the melting point lay within 185 to 187 °C.
For `COc1ccc(Nc2nc(Nc3cc4c(cc3OC)CNC(CC3CC3)C(=O)N4C)ncc2Cl)c(-n2cccn2)c1` (stereo not given), the melting point is 94 to 96 °C.
`O=C(O)C(=O)c1ccc(OCC(=O)N2CCc3ccccc3C2)cc1` gave a melting point of 218 to 220 °C.
Compound `COc1cc(F)cc(-c2nn(Cc3oc4ccccc4c(=O)c3-c3cccc(F)c3)c3ncnc(N)c23)c1` gave a melting point of 115 to 117 °C.
Compound `CC(C)c1cccc(C(C)C)c1NC(=O)[C@H](C)NC(c1ccccc1)c1ccccc1` gave a melting point of 134 to 138 °C.
As for `NC(=O)C1CCc2cc3c(nc21)CCC3` (stereo not given), the figure is 188 °C; as for `Cn1c(Sc2cc(C(F)(F)F)ccc2C#N)n[nH]c1=O`, 182 °C; as for `COc1ccc2[nH]cc(CCC(=O)O)c2c1`, 80 °C.
With `O=C1c2ccccc2-c2c1c1ccccc1c(=O)n2CCCCCCCCCCCNS(=O)(=O)c1ccccc1`, the melting point is 170 to 172 °C.
For `CCc1nc2c(N)nc3cc(CCC(N)=O)ccc3c2n1CC1CCOCC1` the value was 197 to 199 °C.
Compound `CSc1ccc([N+](=O)[O-])c(C#N)c1` came in with a melting point of 112 to 113 °C.
In turn, `COc1ccc(CCNc2c(-c3ccc(S(C)(=O)=O)cc3)cnn(CC(F)(F)F)c2=O)cc1OC` had a melting point of 163 to 165 °C.
`O=C(c1ccccc1)c1ccc(OCC(O)COCCCCCCCCOCC(O)COc2ccc(C(=O)c3ccccc3)c(O)c2)cc1O` (stereo not given) came in with a melting point of 74 °C.
`COc1ccc(-c2ccc3cc(C4SC(=O)NC4=O)ccc3c2)cc1C12CC3CC(CC(C3)C1)C2` (stereo not given): the melting point lay within 205 to 207 °C.
For `Cn1cc(C2=C(c3cn(C)c4cc([N+](=O)[O-])ccc34)C(=O)N(COP(=O)(OCc3ccccc3)OCc3ccccc3)C2=O)c2ccccc21` the value was 105 to 109 °C.
Compound `O=C1CCC(C(=O)N2CCC(Cc3ccccc3)CC2)N1` (stereo not given) registered a melting point of 160 to 161 °C.
As for `Cc1ccc(NC(=O)c2ccc(CN(C)C)c(C(F)(F)F)c2)cc1-c1ccc2cnncc2c1`, the figure is 240 to 241 °C; as for `Cn1nnnc1Cn1nnnc1Cl`, 138 to 140 °C.
Take `CN(C)C1(Cc2ccccc2)CC=C(c2[nH]c3ccccc3c2CCc2ccncc2)CC1` (stereo not given): the melting point is 154 to 157 °C.
Take `Cc1cccc(Cl)c1N(C)S(=O)(=O)c1nc2scc(C)n2n1`: the melting point is 178 to 180 °C.
As for `CN(C)C1(c2ccccc2)CCC(CNC(=O)NCCCc2ccccc2)CC1` (stereo not given), the figure is 100 to 110 °C; as for `CC(C)CC(=O)OC1COC(OC(=O)CC(C)C)CO1` (stereo not given), 104 to 105 °C.
Consider `CC(=O)N1CC=C(c2cc(C)c(O)cc2C)CC1`, for which the melting point was found to be 220 °C.
For `N#Cc1ccc(N2CCC(=O)CC2)c2ccccc12` the value was 143 to 144 °C; for `CC(=O)C(=Cc1cc([N+](=O)[O-])c(O)c([N+](=O)[O-])c1)C(C)=O`, 158 °C; for `O=C(COC(=O)Cc1ccccc1Nc1cc2c(cc1Cl)CCC2)OCc1ccccc1`, 97 to 100 °C.
For `CCOC1=NS(=O)(=O)c2cccc([N+](=O)[O-])c21`, the melting point lay within 190 to 191 °C.
In turn, `O=S(=O)(c1ccccc1)N1CCCC1c1ccc(C(F)(F)F)cc1` (racemic) showed a melting point of 95 °C.
As to `Cc1cc(-c2nc(COc3ccc(CCCn4ccnc4)cc3)co2)sc1Br`, the melting point fell in the range of 92 to 93 °C.
In turn, `COC(=O)NC[C@H]1CN(c2ccc3c(c2)CCCc2cnoc2-3)C(=O)O1` came in with a melting point of 166 to 168 °C.
For the compound `C=CCCC(O)=C(C#N)C(=O)Nc1ccc(Cl)cc1`, the melting point was found to be 138 °C.
`Cc1nc(N(C)Cc2ccco2)c2nc(-c3ccccc3)cc-2[nH]1` had a melting point of 168 to 169 °C.
As for `COc1ccc2c(c1)CCC(CN1CCC(O)(c3ccccc3)CC1)C2=O` (stereo not given), the figure is 163 to 165 °C; as for `CN(C)C(=O)N[C@H]1CC[C@H](CCN2CCN(c3cccc4c3CCC4)CC2)CC1`, 150 to 152 °C.
In turn, `c1ccc(CSc2ncccc2C2=NOCC2)cc1` came in with a melting point of 97 to 98 °C.
Regarding `CC(C)(C)CNc1ccnc2sc(C(N)=O)c(N)c12`, the melting point lay in the range of 238 to 240 °C.
For `CC1CC(=O)NN=C1c1ccc(Cl)c([N+](=O)[O-])c1` (stereo not given), the melting point is 186 to 188 °C.
Regarding `CC(C)(C)OC(=O)NC1Cc2ccccc2C2OC12` (stereo not given), the melting point lay within 118 to 119 °C.
As for `CCOc1cnc2nc(SCc3ccccc3)nn2c1`, the melting point lay in the range of 139 to 140 °C.
With `COC(=O)/C(=C/c1cccc([N+](=O)[O-])c1)CC(=O)O`, the melting point lay within 160 to 161 °C.
Turning to `Cc1cc(-c2ccc(C(F)(F)F)nc2)nc(-c2ccnc(-c3ccc(S(N)(=O)=O)s3)c2)n1`, the melting point worked out at 289 °C.
Compound `COc1ccc(CCN(C)CCCCc2ccc(NC(=O)c3cccc4c(=O)c5ccccc5[nH]c34)cc2)cc1` had a melting point of 143 °C.
With `N#CC1=C(c2ccccc2)Nc2ccccc2S1=O` (stereo not given), the melting point lay in the range of 182 to 184 °C.
For `Cc1nn(C)c2c1N(C(=O)CN(C(C)C)C(C)C)c1ccccc1NC2=O`, the melting point is 154 to 156 °C.
`Clc1ccc2c(c1)CCC(c1ccccc1)O2` (stereo not given) showed a melting point of 71 to 72 °C.
`O=S(=O)(CCCCl)Nc1cccc(OCc2ccc3ccccc3n2)c1`: the melting point was 116 to 117 °C.
With `COc1cc2c(O)c(C(=O)O)cnc2cc1F`, the melting point was 275 °C.
As for `Cc1cc(Cn2cncc2C)cc2c1Cc1c(-c3ccsc3)n[nH]c1-2`, the figure is 260 to 264 °C; as for `CN(C)Cc1ccc([C@H]2CC[C@H](OC(=O)c3ccc(Cl)cc3)CC2)cc1`, 94 to 95 °C; as for `CN(C)Cc1ccccc1Sc1ccc([N+](=O)[O-])cc1[N+](=O)[O-]`, 128 to 129 °C.
In turn, `CCN(CC)CCNC(=O)c1cccc2c(=O)c(C)c(-c3cccc(Cl)c3)oc12` showed a melting point of 116 to 117 °C.
As for `CC#CCOc1ccc(S(=O)(=O)N(C)c2c(C(=O)OCC)cnc3onc(C)c23)cc1`, the melting point was in the range of 85 to 90 °C.
With `CC(=O)OCC1OC(n2cnc3c(-n4cnc(-c5ccccc5)c4-c4ccccc4)nc(Cl)nc32)C(OC(C)=O)C1OC(C)=O` (stereo not given), the melting point was found to be 146 °C.
In turn, `CC(C)(C)c1cc(CN(c2cccnc2)S(=O)(=O)c2ccccc2Br)cc(C(C)(C)C)c1O` yielded a melting point of 105 to 107 °C.
In the case of `Cc1ccccc1S(=O)(=O)NC(=O)CCSC1c2ccccc2COc2ccc(OCc3ccc4ccc(Cl)cc4n3)cc21` (stereo not given), the melting point was in the range of 87 to 90 °C.
Compound `Cc1ccc(-n2nc(C(F)F)cc2-c2ccc(S(C)(=O)=O)cc2)cc1Br` showed a melting point of 136 to 138 °C.
`CCOC(=O)c1ccc(-c2[nH]nc3c2C(=O)c2c(NC(=O)NN4CCC[C@@H]4COC)cccc2-3)s1` gave a melting point of 221 to 222 °C.
Compound `CC(C)n1cnc2c(Nc3cccc(Cl)c3)nc(Cl)nc21` displayed a melting point of 128 to 129 °C.
With `CC(Oc1ccc2c(=O)c(-c3ccccc3)coc2c1)C(=O)O` (stereo not given), the melting point was in the range of 201 to 202 °C.

The record behind these values is a melting point compilation (Tetko et al.; mined from patent text by program, amines drawn as free bases though some values may be those of a salt).
